Test [1] has as its system Na,K-ATPase. Nature of the test: Inhibition of Na,K-ATPase activity in rat brain microsomal fraction (colorimetric inorganic phosphate). The format is biochemical. Here is the method:
Assays for Digitalis-Like Activity: • The digitalis-like activity of each fraction obtained in the course of the purification was determined quantitatively using at least two of the following bioassays: • a. Inhibition of [^3H]-ouabain binding: • The binding of [^3H]-ouabain to rat brain synaptosomal fraction was carried out by a conventional filtration technique as previously described (Lichtstein D., et al., Life Sci. 38: 1261-1270 (1986)). In brief: The reaction mixture (500µl final volume) contained the following constituents (final concentrations): 50 mM Tris-HCI buffer (pH 7.4), 0.5 mM EDTA, 80 mM NaCI, 4 mM MgSO4, 2 mM ATP (Tris, vanadium-free) and 32 nM [^3H]-ouabain (19.5 Ci/mmol). Reactions were initiated by the addition of 200 µl of crude synaptosomal fraction resulting in a final protein concentration of 200 µg per reaction. Following incubation for 1 hr. at 37° C, the reactions were terminated by the addition of 3 ml cold (4°C) 50 mM Tris-HCI (pH 7.4) and filtered over Whatman GF/B filters. The filters were washed two times with 3 ml volumes of the same Tris buffer, dried and assayed for radioactivity in a Packard liquid scintillation counter at a counting efficiency of approximately 50%. Specific binding was calculated by subtracting the binding observed in the presence of 100 µM unlabeled ouabain from that observed in the absence of unlabeled ouabain. Specific binding represented 93% of the total binding under control conditions. • b. Inhibition of Na, K-ATPase activity: • Na,K-ATPase activity in rat brain microsomal fraction was determined as previously described (Lichtstein D., et al., Life Sci. 38: 1261-1270 (1986)). Enzyme activity was measured by the colorimetric determination of inorganic phosphate after the incubation of microsomes (200 µg protein per reaction) at 37 C in a solution (final volume 500 µl) containing (final concentrations) 34 mM Tris-HCI (pH 7.4), 100 mM NaCl, 20 mM KCI, 4 Mm MgC12 and 4 mM ATP (Tris, vanadium free). After preincubation for 10 min., the ATP was added to initiate the reaction. Reactions were terminated by the addition of 100 µl of 5% trichloroacetic acid and.the precipitate was removed by centrifugation. Na,K-independent ATPase activity was determined by omitting Na^+ and K^+ from the reaction mixture or by the addition of 1 mM ouabain to the complete assay mixture. • c. Inhibition of ^86Rb uptake to N1E115 cells: • Neuroblastoma N1E115 cells were grown in MEM (Modified Eagle's Medium) medium. Cells were removed from their growth flask by raising and lowering the medium with a pipette and centrifuged at 100 x g in a Sorval RC-5 centrifuge for 10 minutes. The pellet was resuspended in MEM. 86Rb-uptake was initiated by the addition of N1E115 cells to MEM which contained ^86Rb tracer (1 µCi). Uptake was terminated after 1 min. by the addition of 1.5 ml ice cold 125 mM MgC12 solution followed by 1 min. centrifugation in an Eppendorf centrifuge. The Eppendorf tube was cut and the pellet removed and transferred to a scintilation vial, to which 6 ml of Emulsifier Scintillator 299TM (Packard) were added and radioactivity was determined.

Test [2] has as its system Na,K-ATPase. Nature of the test: Inhibition of [3H]-ouabain binding to rat brain synaptosomal fraction (filtration). The following applies: Figure 10; result in words. Here is the method: Assays for Digitalis-Like Activity: • The digitalis-like activity of each fraction obtained in the course of the purification was determined quantitatively using at least two of the following bioassays: • a. Inhibition of [^3H]-ouabain binding: • The binding of [^3H]-ouabain to rat brain synaptosomal fraction was carried out by a conventional filtration technique as previously described (Lichtstein D., et al., Life Sci. 38: 1261-1270 (1986)). In brief: The reaction mixture (500µl final volume) contained the following constituents (final concentrations): 50 mM Tris-HCI buffer (pH 7.4), 0.5 mM EDTA, 80 mM NaCI, 4 mM MgSO4, 2 mM ATP (Tris, vanadium-free) and 32 nM [^3H]-ouabain (19.5 Ci/mmol). […] The filters were washed two times with 3 ml volumes of the same Tris buffer, dried and assayed for radioactivity in a Packard liquid scintillation counter at a counting efficiency of approximately 50%. Specific binding was calculated by subtracting the binding observed in the presence of 100 µM unlabeled ouabain from that observed in the absence of unlabeled ouabain. […] Inhibition of Na, K-ATPase activity: • Na,K-ATPase activity in rat brain microsomal fraction was determined as previously described (Lichtstein D., et al., Life Sci. 38: 1261-1270 (1986)). […]

This note sets out measurements from EP0381527A1, “Ouabain like compounds and pharmaceutical compositions containing them” (YISSUM RESEARCH DEVELOPMENT COMPANY OF THE HEBREW …, priority 1989, dated 1990).

Regarding `CCCC=CC(O)CC(O)CCCCCCCCCC(=O)O` (single isomer, unassigned) [DLC-II, 11,13-dihydroxy-14-octadecaenoic acid], the “Na+, K+-ATPase activity (% of control)” value with Na,K-ATPase [1] (amount 1 (arbitrary units)) is reported as 90 % of control; in the test on Na,K-ATPase [1] (amount 2 (arbitrary units)), 67 % of control; with Na,K-ATPase [1] (amount 3 (arbitrary units)), 71 % of control; in the test with Na,K-ATPase [1] (amount 5 (arbitrary units)), 51 % of control; in the test on Na,K-ATPase [1] (amount 8 (arbitrary units)), 10 % of control. In addition, in the test with Na,K-ATPase [2], the “inhibition of [^3H]-ouabain binding” value is “inhibit [^3H]-ouabain binding in a dose dependent mode”.
